Experiment [1] deals with T1, Thyrotropin-releasing hormone receptor (Mus musculus, UniProt P21761).
T1 sequence (P21761 whole entry): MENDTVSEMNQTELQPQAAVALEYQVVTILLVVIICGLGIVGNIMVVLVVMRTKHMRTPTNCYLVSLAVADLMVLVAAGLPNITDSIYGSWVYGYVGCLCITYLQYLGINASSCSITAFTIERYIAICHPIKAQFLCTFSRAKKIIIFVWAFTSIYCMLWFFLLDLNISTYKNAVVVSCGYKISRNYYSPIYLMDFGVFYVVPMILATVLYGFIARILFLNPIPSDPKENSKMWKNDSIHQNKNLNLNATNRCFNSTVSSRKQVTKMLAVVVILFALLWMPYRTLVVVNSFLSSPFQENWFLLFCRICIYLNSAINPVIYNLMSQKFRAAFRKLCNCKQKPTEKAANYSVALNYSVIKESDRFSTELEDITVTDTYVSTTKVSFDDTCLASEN
Put plainly: Ability to activate thyroliberin endocrine receptor (TRH-R) using AtT-20 mouse pituitary tumor cells prelabelled with myo-[3H] inositol.

Experiment [2] has as its target T1, Thyrotropin-releasing hormone receptor. Briefly: Ability to bind thyroliberin endocrine receptor (TRH-R) using AtT-20 mouse pituitary tumor cells.

The values that follow come from ChEMBL document CHEMBL1130656, “Thyrotropin releasing hormone analogs: a building block approach to the construction of tetracyclic peptidomimetics” (Bioorg Med Chem Lett, 1998).

Structures are written as SMILES. Non-standard residues stand in square brackets, D forms with d. Residues, ends and D or L forms follow the SMILES beside them. Cha = N[C@@H](CC1CCCCC1)C(=O)O; pGlu = O=C1CC[C@@H](C(=O)O)N1

For `NC(=O)[C@@H]1CCCN1C(=O)[C@H](Cc1cnc[nH]1)NC(=O)[C@@H]1CCC(=O)N1` [PROTIRELIN], it took 0.49 nM to reach a half-maximal effect in experiment [1] (EC50). In experiment [2], this compound showed a Ki of 23 nM.
In the same order, the values of `NC(=O)[C@@H]1CCCN1C(=O)[C@H](CC1CCCCC1)NC(=O)[C@@H]1CCC(=O)N1` ([pGlu]-[Cha]-Pro-NH2) are 430 nM and 6500 nM.
As to `NC(=O)[C@@H]1CCC2CC(C3CCCCC3)=C(N3CC[C@]4(CCC(=O)N4)C3=O)C(=O)N21` (single isomer, unassigned; 2a), the EC50 in experiment [1] came to 1800 nM. This compound also registered a Ki in experiment [2] of 1500 nM.
In the case of `NC(=O)[C@@H]1CCC2CC(C3CCCCC3)=C(N3CC[C@]4(CCC(=O)N4)C3=O)C(=O)N21` (single isomer, unassigned; 2b), the EC50 in experiment [1] amounted to 18000 nM. The compound also yielded an inhibition constant (Ki) in experiment [2] of 36000 nM.
